From ChEMBL document CHEMBL5058541, “EUbOPEN Chemogenomics Library 2 (NanoBRET)” (2022)

What was measured:
[1] = target: YEATS domain-containing protein 4 (Homo sapiens) (UniProt O95619); experiment: Thermal Shift Assay. Domain: start/stop V16-K225; conditions: Compound concentration 25.0 uM, Protein concentration 2.0 uM
[2] = target: Fibroblast growth factor receptor 3 (Homo sapiens) (UniProt P22607); conditions: Compound concentration 20.0 uM, Protein concentration 2.0 uM, Result type QC Liability
Description: Thermal Shift Assay. Domain: start/stop: P449-E759

[3] = target: T1, YEATS domain-containing protein 2 (Homo sapiens) (UniProt Q9ULM3); experiment: Thermal Shift Assay. Domain: start/stop M1-D141; conditions: Compound concentration 25.0 uM, Protein concentration 2.0 uM
T1 sequence (whole entry): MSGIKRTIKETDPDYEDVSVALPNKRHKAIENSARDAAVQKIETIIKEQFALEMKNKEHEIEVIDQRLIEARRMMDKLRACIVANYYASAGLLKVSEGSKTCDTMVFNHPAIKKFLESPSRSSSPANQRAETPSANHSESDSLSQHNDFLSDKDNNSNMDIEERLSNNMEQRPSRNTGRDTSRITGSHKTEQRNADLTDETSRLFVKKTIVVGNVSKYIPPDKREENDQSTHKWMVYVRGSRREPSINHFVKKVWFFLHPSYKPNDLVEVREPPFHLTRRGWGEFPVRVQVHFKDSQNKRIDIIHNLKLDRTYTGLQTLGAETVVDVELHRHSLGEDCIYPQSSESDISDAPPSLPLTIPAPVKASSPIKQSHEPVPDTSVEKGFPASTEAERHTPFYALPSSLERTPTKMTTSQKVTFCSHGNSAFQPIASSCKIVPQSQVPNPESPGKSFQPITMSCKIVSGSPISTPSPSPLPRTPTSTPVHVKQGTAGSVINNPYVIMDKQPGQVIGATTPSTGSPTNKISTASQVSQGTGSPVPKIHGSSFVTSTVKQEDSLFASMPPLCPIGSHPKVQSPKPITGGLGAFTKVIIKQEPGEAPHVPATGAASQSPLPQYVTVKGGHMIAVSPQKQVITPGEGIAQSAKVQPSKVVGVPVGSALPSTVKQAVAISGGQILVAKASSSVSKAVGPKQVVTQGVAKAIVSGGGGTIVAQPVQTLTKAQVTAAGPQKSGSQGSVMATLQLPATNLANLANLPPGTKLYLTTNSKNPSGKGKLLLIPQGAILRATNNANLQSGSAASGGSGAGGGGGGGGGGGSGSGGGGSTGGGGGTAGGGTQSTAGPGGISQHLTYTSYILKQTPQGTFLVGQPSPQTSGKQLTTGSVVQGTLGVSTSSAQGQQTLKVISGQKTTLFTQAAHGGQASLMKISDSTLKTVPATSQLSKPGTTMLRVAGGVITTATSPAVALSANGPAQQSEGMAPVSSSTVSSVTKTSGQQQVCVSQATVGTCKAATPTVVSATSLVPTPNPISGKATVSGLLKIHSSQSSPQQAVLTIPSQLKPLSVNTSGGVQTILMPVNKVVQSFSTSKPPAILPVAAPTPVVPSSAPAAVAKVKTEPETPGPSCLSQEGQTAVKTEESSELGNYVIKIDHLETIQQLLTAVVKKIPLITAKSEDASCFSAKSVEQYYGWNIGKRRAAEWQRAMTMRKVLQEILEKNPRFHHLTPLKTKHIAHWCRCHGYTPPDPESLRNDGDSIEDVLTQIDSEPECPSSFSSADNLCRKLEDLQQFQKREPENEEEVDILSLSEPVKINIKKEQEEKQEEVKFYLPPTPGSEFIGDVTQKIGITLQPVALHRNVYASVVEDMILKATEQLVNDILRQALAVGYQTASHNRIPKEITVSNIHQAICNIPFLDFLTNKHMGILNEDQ

Chain of Fibroblast growth factor receptor 3 (Homo sapiens) (P22607 23-806 limits assumed): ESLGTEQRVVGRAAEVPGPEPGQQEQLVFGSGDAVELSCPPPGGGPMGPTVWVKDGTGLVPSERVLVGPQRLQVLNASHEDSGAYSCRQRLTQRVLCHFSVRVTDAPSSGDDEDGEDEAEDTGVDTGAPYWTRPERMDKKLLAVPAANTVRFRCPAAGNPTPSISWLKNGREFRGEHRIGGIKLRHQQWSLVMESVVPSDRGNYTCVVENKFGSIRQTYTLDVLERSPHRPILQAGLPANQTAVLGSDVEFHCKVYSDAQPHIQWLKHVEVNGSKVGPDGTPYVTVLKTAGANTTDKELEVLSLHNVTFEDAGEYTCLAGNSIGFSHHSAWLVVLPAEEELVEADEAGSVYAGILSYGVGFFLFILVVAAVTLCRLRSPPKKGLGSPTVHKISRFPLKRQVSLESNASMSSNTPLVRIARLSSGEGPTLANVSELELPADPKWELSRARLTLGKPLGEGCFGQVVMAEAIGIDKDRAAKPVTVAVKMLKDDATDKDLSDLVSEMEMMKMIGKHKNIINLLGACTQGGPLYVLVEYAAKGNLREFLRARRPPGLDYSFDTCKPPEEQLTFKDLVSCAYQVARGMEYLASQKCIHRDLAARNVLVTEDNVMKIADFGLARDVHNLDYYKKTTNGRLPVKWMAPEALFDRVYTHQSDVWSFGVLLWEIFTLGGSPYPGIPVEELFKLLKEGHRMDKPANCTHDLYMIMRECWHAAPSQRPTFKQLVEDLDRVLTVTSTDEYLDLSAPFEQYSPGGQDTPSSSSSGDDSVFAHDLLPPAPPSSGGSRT
Chain of YEATS domain-containing protein 4 (Homo sapiens) (O95619 whole entry, the tested form may be a part): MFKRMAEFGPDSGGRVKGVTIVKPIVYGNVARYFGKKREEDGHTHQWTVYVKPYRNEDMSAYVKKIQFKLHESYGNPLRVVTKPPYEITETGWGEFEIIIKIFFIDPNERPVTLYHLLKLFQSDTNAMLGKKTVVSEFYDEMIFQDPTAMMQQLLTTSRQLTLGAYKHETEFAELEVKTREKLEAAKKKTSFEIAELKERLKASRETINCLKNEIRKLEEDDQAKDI

CN(C)C(=O)c1ccc(-c2cc(C(=O)N[C@@H]3CCc4ccccc43)no2)cc1O
ΔTm [1]: -0.19 c
ΔTm [2]: -0.162 c
ΔTm [3]: -0.01 c
